According to PMC10385824, “Antiproliferative and Tubulin-Destabilising Effects of 3-(Prop-1-en-2-yl)azetidin-2-Ones and Related Compounds in MCF-7 and MDA-MB-231 Breast Cancer Cells” (Pharmaceuticals, 2023):
Where two headings read alike, the source gives them in different places.

Legend:
CCRF-CEM = experiment: NCI-60 SRB screen, leukemia; assay type: cell-based; conditions: Homo sapiens, 48 h
SF539 = experiment: NCI-60 SRB screen, CNS cancer; assay type: cell-based, human; conditions: for GI50: Homo sapiens
MCF-7 cells [1] = experiment: Lactate dehydrogenase (LDH) cytotoxicity assay; assay type: cell-based, human; conditions: 10 μM, 72 h, LDH release
Protocol: The cytotoxic effects of the compounds were determined using the CytoTox 96 non-radioactive cytotoxicity assay (Promega) as previously reported. The MCF-7 cells were seeded in 96-well plates and incubated for 24 h. Cells were treated with test compounds 16, 26 and 30 at 10 μM concentration as described in the cell viability assay above. At 72 hr, 20 μL of ‘lysis solution (10X)’ was added to the control wells to ensure 100% death. The cells were incubated for a further 1 hr. Supernatant (50 μL) was removed from each well and transferred to a 96-well plate. Cytotox 96R Reagent (50 μL) was added to each well, and the plate was retained in darkness at 20 °C for 30 min. 50 μL of ‘stop solution’ was then added to each well, and the absorbance was determined at 490 nm using a Dynatech MR5000 plate reader. The cell death (%) at 10 μM was determined.

[2] = system: colchicine-binding site of β-tubulin (Cys239, Cys354) in MCF-7 cells; experiment: Colchicine-binding site assay (EBI crosslinking, Western blot); conditions: 10 μM, 2 h, then EBI
[3] = HPLC stability study in plasma; assay type: in vitro ADME, human; conditions: buffered plasma (plasma:buffer 1:9); for half-life at 41.3 µg/mL: human blood plasma, read-out: half-life (t½); for remaining at 24 h, 41.3 µg/mL: study over 24 h
Protocol: Analytical high-performance liquid chromatography (HPLC) stability studies were performed as follows using Symmetry® column (C18, 5 µm, 4.6 × 150 mm), Waters 2487 Dual Wavelength Absorbance detector, Waters 1525 binary HPLC pump and Waters 717 plus Autosampler (Waters Corporation, Milford, MA, USA) with detection at 254 nm as previously described. Samples were analysed using mobile phase acetonitrile (80%): water (20%), flow rate (1 mL/min) over 10 min. […] First, 30 µL of compound stock solution was diluted with appropriate buffer (1 mL); sample was shaken and injected immediately. Samples were withdrawn and analysed at the following time points: t = 0 min, 5 min, 30 min, 60 min, 90 min, 120 min, 24 h and 48 h. (ii) Thermal stability: Compound stock solution (1 mL) was placed in a glass vial on a heating block for 4 h at 60 °C. The sample was then cooled, diluted (acetonitrile) and analysed. (ii) Oxidising conditions: H2O2 (3%, 0.2 mL) was added to compound stock solution (0.8 mL). The vial was vortexed and retained at 20 °C, and the sample was analysed at 60, 120 180 and 240 min. (iv) Acidic conditions: HCl (0.1 M, 0.2 mL) was added to stock solutions (0.8 mL). The vial was mixed by vortex and retained at 20 °C. A sample was neutralised with NaOH (0.1 M, 0.2 mL) at 60, 120, 180 and 240 min, followed by HPLC analysis. (v) Alkaline conditions: NaOH (0.1 M, 0.2 mL) was added to stock solution (0.8 mL) of the compound in a vial. The vial was mixed by vortex and retained at 20 °C. A sample was neutralised with HCl (0.1 M, 0.2 mL) at 60, 120, 180 and 240 min followed by HPLC analysis. (vi) Photostability study: Compounds (stock solution, 1 mL) were placed in a vial, exposed to UV light for 4 h and then analysed by HPLC as above. Stability studies in plasma: Approval for this study was obtained from the School of Pharmacy and Pharmaceutical Sciences Trinity College Dublin Research Ethics Committee (2020–06-01-MS). Following informed consent, blood was withdrawn from healthy volunteers, and plasma was obtained by centrifugation and kept at −20 °C until further use. […] A sample (250 µL) was then added to the Eppendorf tube containing ZnSO4.7H2O solution (500 µL) (2% w/v ZnSO4 solution in acetonitrile:water, 1:1). The samples were centrifuged (10,000 rpm, 3 min), filtered (0.2 micron filter) and analysed by HPLC as above. Further samples were taken at one-hour intervals.

[4] = HPLC stability study in phosphate buffers; assay type: physicochemical; conditions: for half-life at 14.6 µg/mL / remaining at 24 h, 14.6 µg/mL / remaining at 264 h, 14.6 µg/mL: phosphate buffer; for half-life at 14.6 µg/mL: read-out: half-life (t½) (converted); for remaining at 24 h, 14.6 µg/mL: study over 24 h; for remaining at 264 h, 14.6 µg/mL: study over 264 h
SF-268 = experiment: NCI-60 SRB screen, CNS cancer; assay type: cell-based, human; conditions: 48 h; for GI50: Homo sapiens, five dose 0.01–100 µM
Protocol: The initial NCI 60 cell line screen used the sulforhodamine B (SRB) protein assay, at one dose concentration (10 μM), and subsequently, a five-dose screening in the concentration range 0.01–100 μM was carried out.

UACC-257 = experiment: NCI-60 SRB screen, melanoma; assay type: cell-based, human; conditions: for GI50: Homo sapiens
MCF-7 cells [5] = experiment: Annexin-V/PI apoptosis assay; conditions: for cells undergoing apoptosis (early+late): 72 h
Protocol: Flow cytometry using annexin-V and propidium iodide (PI) was used to detect apoptotic cell death in MCF-7 cells. […] Cells were then incubated on ice in darkness for 30 min in annexin-V-containing binding buffer [1:100]. Cells were washed once in binding buffer and then re-suspended in propidium iodide containing binding buffer [1:1000]. Cells were analysed directly using the BD Accuri flow cytometer and Prism software. Four cell populations are produced in this assay: annexin-V- and PI-negative (Q4, healthy cells), annexin-V-positive and PI-negative (Q3, early apoptosis), annexin-V- and PI-positive (Q2, late apoptosis) and annexin-V-negative and PI-positive (Q1, necrosis). CA-4 (50 nM) was used as the positive control for apoptosis.
Cells were then collected and processed for analysis.

[6] = five dose 0.01–100 µM, read-out: GI50
[7] = SF-539, SF539, five dose 0.01–100 µM, 48 h, read-out: GI50
[8] = Homo sapiens, MCF7, 72 h, read-out: Viable
[9] = UACC-257, five dose 0.01–100 µM, 48 h, read-out: GI50

Molecule C=C(C)C1C(=O)N(c2cc(OC)c(OC)c(OC)c2)C1c1ccc(OC)cc1 (stereo not shown) [9h, 4-(4-Methoxyphenyl)-1-(3,4,5-trimethoxyphenyl)-3-(prop-1-en-2-yl)azetidin-2-one] has a GI50 (CCRF-CEM; [6]) of 37.5 nM, a GI50 (SF539; [7]) of 35.2 nM and a cell death (MCF-7 cells [1]) of 30%.
With C=C(C)C1C(=O)N(c2cc(OC)c(OC)c(OC)c2)C1c1ccc(OC)c(O)c1 (stereo not shown) [9q, 4-(3-Hydroxy-4-methoxyphenyl)-1-(3,4,5-trimethoxyphenyl)-3-(prop-1-en-2-yl)azetidin-2-one] the “formation of β-tubulin-EBI adduct” value [2] was “formation of the EBI adduct was prevented”, the GI50 (CCRF-CEM; [6]) was 19.2 nM and the half-life at 41.3 µg/mL [3] was greater than 24 h. The remaining at 24 h, 41.3 µg/mL ([3]; human, Plasma) was 80%, the half-life at 14.6 µg/mL ([4]; pH 4) was 13 h and the half-life at 14.6 µg/mL ([4]; pH 7.4) was 13 h. The half-life at 14.6 µg/mL ([4]; pH 9) was 6 h, the remaining at 24 h, 14.6 µg/mL ([4]; pH 4.0) was 33% and the remaining at 24 h, 14.6 µg/mL ([4]; pH 7.4) was 35%. The remaining at 24 h, 14.6 µg/mL ([4]; pH 9.0) was 34%, the “% Growth” value (SF539; SF-539, one dose 10 µM, 48 h) was -8.30% and the cell death (MCF-7 cells [1]) was 32%. For the same molecule, the GI50 (SF-268) was 22.9 nM, the “% Growth” value (SF-268; one dose 10 µM) was 19.27% and the “% Growth” value (UACC-257; UACC-257, one dose 10 µM, 48 h) was 74.47%. For the same molecule, the “cells undergoing apoptosis (early+late)” value (MCF-7 cells [5]; 50 nM) was 27%, the “cells undergoing apoptosis (early+late)” value (MCF-7 cells [5]; 500 nM) was 38.9% and the viability at 0.05 µM (MCF-7 cells [5]; [8]) was 69.2%. It also gave a viability at 0.5 µM (MCF-7 cells [5]; [8]) of 57%.
Work on C=C(C)C1C(=O)N(c2cc(OC)c(OC)c(OC)c2)C1c1ccc(OC)c(N)c1 (stereo not shown) [9s, 4-(3-Amino-4-methoxyphenyl)-1-(3,4,5-trimethoxyphenyl)-3-(prop-1-en-2-yl)azetidin-2-one] yielded a GI50 (CCRF-CEM; [6]) of 37.7 nM, a GI50 (SF539; [7]) of 40.2 nM and a GI50 (UACC-257; [9]) greater than 100000 nM.
In the case of C=CCC1C(=O)N(c2cc(OC)c(OC)c(OC)c2)C1c1ccc(OC)c(O)c1 (stereo not shown) [10p, 4-(3-Hydroxy-4-methoxyphenyl)-1-(3,4,5-trimethoxyphenyl)-3-allylazetidin-2-one], the GI50 (CCRF-CEM; [6]) is reported as 36.1 nM, the remaining at 264 h, 41.3 µg/mL ([3]; human, Plasma, study over 264 h) is reported as 97% and the compound remaining ([4]; all pH values (4, 7.4, 9), after 11 days) is reported as “over 95%”. The remaining at 264 h, 14.6 µg/mL ([4]; pH 4.0) was 98%, the remaining at 264 h, 14.6 µg/mL ([4]; pH 7.4) was 99% and the remaining at 264 h, 14.6 µg/mL ([4]; pH 9.0) was 96%. The half-life at 14.6 µg/mL ([4]; pH range studied, medium not specified) was greater than 24 h and the GI50 (SF539; [7]) was 38.2 nM.
Work on C=CC=CC1C(=O)N(c2cc(OC)c(OC)c(OC)c2)C1c1ccc(OC)cc1 (stereo not shown) [11h, 3-(Buta-1,3-dienyl)-4-(4-methoxyphenyl)-1-(3,4,5-trimethoxyphenyl)azetidin-2-one] yielded a GI50 (CCRF-CEM) of 37.8 nM, a GI50 (SF539; SF-539, 48 h) of 33.2 nM and a GI50 (UACC-257; UACC-257, 48 h) of 11200 nM.
For C=C/C=C/C1C(=O)N(c2cc(OC)c(OC)c(OC)c2)C1c1ccc(OC)c(N)c1 (stereo not shown) [11r, (E)-4-(3-Amino-4-methoxyphenyl)-3-(buta-1,3-dien-1-yl)-1-(3,4,5-trimethoxyphenyl)azetidin-2-one], the GI50 (CCRF-CEM) was 36.5 nM and the GI50 (SF539; SF-539, 48 h) was 39 nM.
In the case of C=C(C)C1C(=O)N(c2cc(OC)c(OC)c(OC)c2)C1c1ccc(OC)c(OP(=O)(O)O)c1 (stereo not shown) [15a, 2-Methoxy-5-(4-oxo-3-(prop-1-en-2-yl)-1-(3,4,5-trimethoxyphenyl)azetidin-2-yl)-phenyl dihydrogen phosphate], the GI50 (CCRF-CEM; [6]) is reported as 55.7 nM, the half-life at 41.3 µg/mL [3] is reported as greater than 24 h and the remaining at 24 h, 41.3 µg/mL ([3]; human, Plasma) is reported as 97%. For the same molecule, the half-life at 14.6 µg/mL ([4]; pH 4) was greater than 24 h, the half-life at 14.6 µg/mL ([4]; pH 7.4) was greater than 24 h and the remaining at 24 h, 14.6 µg/mL ([4]; pH 4.0) was 96%. For the same molecule, the remaining at 24 h, 14.6 µg/mL ([4]; pH 7.4) was 98%, the GI50 (SF539; [7]) was 39.8 nM and the GI50 (SF-268) was 98.1 nM. The GI50 (UACC-257; [9]) was greater than 100000 nM.
COc1ccc(C2C(C(C)C)C(=O)N2c2cc(OC)c(OC)c(OC)c2)cc1OP(=O)(O)O (stereo not shown) [15b, 5-(3-Isopropyl-1-(3,4,5-trimethoxyphenyl)-4-oxoazetidin-2-yl)-2-methoxyphenyl dihydrogen phosphate] gave a GI50 (CCRF-CEM; [6]) of 356 nM, a GI50 (SF539; [7]) of 132 nM and a GI50 (SF-268) of 447 nM. The GI50 (UACC-257; [9]) was greater than 100000 nM.
